What was measured:
Type in all cases: physicochemical
[1] = Drug content analysis via HPLC of extruded filaments and 3D printed tablets; conditions: percentage recovery of the active ingredient
Description: Filaments were prepared with the target concentration of components as detailed in Table III. 10 g of the dry ingredients (% weights according to Table III) was blended with 2 g of distilled non-ionised water (temporary plasticiser) using a mortar and pestle. The resulting blends were fed to a hot melt extruder at 90° C. and mixed at 100 rpm. A Thermo Scientific HAAKE MiniCTW hot melt extruder (Karlsruhe, Germany) was used to prepare the filaments. The filaments were dried for 1 hour at 100° C. in a drying and heating chamber (Binder Inc., series ED, Tuttinglen, Germany) and then used in 3D printing using the methodology described in Example 2 (i.e., nozzle temperature of 150° C.).
A HPLC method was developed and validated in order to assess the assay of the active substances in the extruded filaments and the 3D printed tablets. Each sample was accurately weighed (approximately 5 mg) and placed in a 1000 ml volumetric flask and dissolved in a mixture of water:acetonitrile:methanol (80:10:10). The solutions were then filtered through an Econofltr 0.2 μm syringe (Agilent Technologies Ltd., Cheadle, UK) and analysed by HPLC.
Lisinopril dihydrate, indapamide, rosuvastatin calcium and amlodipine content was assessed using Agilent UV-HPLC 1260 series (Agilent Technologies, Germany) equipped with a synergy max column (250×4.6 mm, 4 μm particle size), at temperature of 50° C. The analysis was carried out at 210 nm wavelength, flow rate 1 mL/min, injection volume was 100 μl and run time of 35 minutes. The mobile phase consisted of acetonitrile (A) and buffer pH3 (B) (which was prepared by adjustment of the pH of distilled water with phosphoric acid) according to the gradient in Table IV. Drug assay of the multi-layer polypill I (prepared from the uni-matrix) was assessed based on the assumption that each layer corresponds to an equal part of the tablet.

[2] = HPLC analysis of hydrocortisone content in extruded filament and FDM 3D printed tablet at different drug loadings; conditions: for Drug potency in filament average ± SD (n = 3): Eudragit EPO filament, HME 90° C.; for Drug potency in FDM 3D printed average ± SD (n = 3): nozzle 135° C.
Description: Filaments were compounded according to the formulation in Table VIII using Thermo Fisher Haake MiniCTW compounder. The extruder speed was set at 35 rpm and temperature at 90° C.
Tablets were constructed with the pre-prepared filaments using a commercial FDM 3D printer equipped with 0.4 mm nozzle size. The templates used to print the tablets were designed in a caplet shape using Autodeski 3ds Maxi Design 2012 software version 14.0 (Autodesk, Inc., USA). The design was saved in a stereo-lithography (.stl) file format and was imported to the 3D software, MakerWare Version 3.9.1.1143 (Makerbot Industries, LLC., USA). Tablets were printed using modified settings of the software for PLA: as follows: type of printer: Replicator 2×; resolution: standard; speed of extruder 90 mm/s while extruding and 150 mm/s while traveling; infill: 100%; height of the layer: […]. No supports or rafts were utilized. The temperatures for the nozzle and build plate of the 3D printer were 135° C. and 60° C. respectively. Blue Scotch painter's tape was applied to the build platform to facilitate the adherence of the printed object during FDM 3D printing.
• Hydrocortisone content was assessed using HPLC using the following conditions: • Mobile phase: water:acetonitrile 1:1. • Stationary phase: Phenomenex® column Synergi Polar RP column with particle size 4 μm with 80 Å • pores, length of 250 mm • Column temperature: 35° C. • Injection Volume: 10 μL. • Flow rate: 1 mL/min • Detection: UV, 254 nm
The blend powder, the extruded filament or the printed tablet were placed into a 500 mL volumetric flask along with HCl. The flasks were sonicated for 30 minutes, followed by allowing the solutions to cool back to room temperature (approximately 30 minutes). A 10 mL syringe was filled with the resulting solution. A filter was added to the syringe; the first 5 mL was discarded, the second 5 mL used to fill a HPLC vial.

[3] = HPLC analysis of API content in filaments and 3D printed tablets after hot melt extrusion and FDM 3D printing; conditions: for Residual Percentage (potency of drug following HME): Filament; for Residual Percentage (potency of drug following HME and FDM 3D printing): Tablets
Description: Filaments containing individual drugs at different concentration were produced to achieve the individual target dose of each model drug. A Thermo Scientific HAAKE MiniCTW hot melt extruder (Karlsruhe, Germany) was used to prepare the filaments. Blank (drug-free) and individual drug loaded filaments were prepared by blending 10 g of dry ingredients (composition according to Table I) with additional 2 g of distilled water (temporary plasticiser) (Table 1) using mortar and pestle. This blend mixture was then fed to the hot melt extruder at 90° C. and mixed at 100 rpm, nozzle size of 1.5 mm. The filaments were extruded at the same temperature at 35 rpm. The extruded filaments were dried at 100° C. at 0% RH for 1 hour in a FD240 Binder heating chamber (Tuttlingen, Germany). For comparison purposes, a filament was also extruded without water at an extrusion temperature of 180° C. and a mixing rate of 100 rpm.
The tablets printed were designed using Autodesk® 3ds Max Design 2016 software version 18.0 (Autodesk, Inc., USA). The designs were then imported to the computer software in stereolithographic (STL) format. The extruded filaments were printed by a Makerbot 2×3D printer (Makerbot Industries, NY, USA) fitted with 0.4 mm nozzle and controlled by Simplify 3D software version 4.0 (Cincinnati, OH, USA). Printing took place using nozzle and building plate temperatures of 150 and 40° C. respectively. The tablets were printed following a concentric fill pattern and 100% infill with a layer thickness of 166 μm. For comparison reasons, tablets (without addition of water) were printed following the same settings as above but at nozzle temperature of 210° C.
The HPLC analysis was performed using Agilent 1260 series UV-HPLC (Agilent Technologies, Germany) equipped with a Synergi Polar column (250×4.6 mm, 4 μm particle size) (Phenomenex, Macclesfield, UK) at 35° C. The analysis was carried out at a detection wavelength of 254 nm, flow rate of 1 mL/min, injection volume of 100 μL and a 4 minute run time. The mobile phase consisted of a 1:1 mixture of solvent A (acetonitrile) and solvent B (water).
For theophylline, the same UV-HPLC system and column were used as detailed above for hydrocortisone. The mobile phase constituted of 10 mM solution of ammonium acetate buffer, methanol and acetonitrile (86:7:7). Analysis was carried out at a wavelength of 272 nm, temperature of 40° C., flow rate of 1 ml/min, injection volume of 5 μL and a run time of 7 min.
In order to examine the effect of hot melt extrusion (HME) and FDM 3D printing on the integrity of the active pharmaceutical ingredient (API), API-loaded filaments were analysed for API content post drying as well as in the 3D printed tablets. Samples (API loaded filaments or tablets) were accurately weighed and placed in 250 mL of 1:1 water:acetonitrile mixture for 2 hour under sonication. The solutions were filtered through 0.22 μm Millex-GP syringe filters (Merck Millipore, USA) and prepared for HPLC analysis.

[4] = 3D printed at nozzle temperature 150° C.
[5] = HME 90° C., dried 1 hour at 100° C.
[6] = no temporary plasticiser, 180° C. for HME
[7] = temporary plasticiser (water), 90° C. for HME
[8] = no temporary plasticiser, 180° C. for HME followed by 210° C. for 3D-printing
[9] = temporary plasticiser, 90° C. for HME followed by 150° C. for 3D-printing
[10] = 3D printed at nozzle temperature 150° C., in %
[11] = HME 90° C., dried 1 hour at 100° C., in %

For CCOC(=O)C1=C(COCCN)NC(C)=C(C(=O)OC)C1c1ccccc1Cl (centres unmarked) [Amlodipine besylate, amlodipine besylate], the “Drug contents in tablets, Amlodipine” value [1, 4] was 90.68 ± 2.28 and the “Drug contents in filament, Amlodipine” value [1, 5] was 97.89 ± 1.94.

For C[C@]12CCC(=O)C=C1CC[C@@H]1[C@@H]2[C@@H](O)C[C@@]2(C)[C@H]1CC[C@]2(O)C(=O)CO [Hydrocortisone], the “Drug potency in filament average ± SD (n = 3)” value ([2]; Drug Concentration 1%) was 85.97 ± 0.14%, the “Drug potency in FDM 3D printed average ± SD (n = 3)” value ([2]; Drug Concentration 1%) was 75.13 ± 0.62% and the “Drug potency in filament average ± SD (n = 3)” value ([2]; Drug Concentration 5%) was 92.25 ± 0.21%. For the same compound, the “Drug potency in FDM 3D printed average ± SD (n = 3)” value ([2]; Drug Concentration 5%) was 95.4 ± 4.3%, the “Drug potency in filament average ± SD (n = 3)” value ([2]; Drug Concentration 10%) was 99 ± 0.34% and the “Drug potency in FDM 3D printed average ± SD (n = 3)” value ([2]; Drug Concentration 10%) was 98.2 ± 0.45%. The “Residual Percentage (potency of drug following HME)” value [3, 6] was 19.98%, the “Residual Percentage (potency of drug following HME)” value ([3]; no temporary plasticiser, 180° C. for HME, listed as hydrocortisone) was 20% and the “Residual Percentage (potency of drug following HME)” value [3, 7] was 100.9%. The “Residual Percentage (potency of drug following HME)” value ([3]; temporary plasticiser (water), 90° C. for HME, listed as hydrocortisone) was 100%, the “Residual Percentage (potency of drug following HME and FDM 3D printing)” value [3, 8] was 3.02% and the “Residual Percentage (potency of drug following HME and FDM 3D printing)” value ([3]; no temporary plasticiser, 180° C. for HME followed by 210° C. for 3D-printing, listed as hydrocortisone) was 3.02%. The “Residual Percentage (potency of drug following HME and FDM 3D printing)” value [3, 9] was 48.6% and the “Residual Percentage (potency of drug following HME and FDM 3D printing)” value ([3]; temporary plasticiser, 90° C. for HME followed by 150° C. for 3D-printing, listed as hydrocortisone) was 48.6%.

With CC1Cc2ccccc2N1NC(=O)c1ccc(Cl)c(S(N)(=O)=O)c1 (centres unmarked) [Indapamide, indapamide] the “Drug contents in tablets, Indapamide” value [1, 10] was 96.06 ± 2.06 and the “Drug contents in filament, Indapamide” value [1, 11] was 93.32 ± 1.67.

For NCCCC[C@H](N[C@@H](CCc1ccccc1)C(=O)O)C(=O)N1CCC[C@H]1C(=O)O [Lisinopril dihydrate], the “Drug contents in tablets, Lisinopril” value [1, 4] was 87.8 ± 1.5 and the “Drug contents in filament, Lisinopril” value [1, 5] was 93.9 ± 1.66.

For CC(C)c1nc(N(C)S(C)(=O)=O)nc(-c2ccc(F)cc2)c1/C=C/[C@@H](O)C[C@@H](O)CC(=O)[O-].CC(C)c1nc(N(C)S(C)(=O)=O)nc(-c2ccc(F)cc2)c1/C=C/[C@@H](O)C[C@@H](O)CC(=O)[O-].[Ca+2] [Rosuvastatin calcium, rosuvastatin calcium], the “Drug contents in tablets, Rosuvastatin” value [1, 10] was 95.4 ± 2.37 and the “Drug contents in filament, Rosuvastatin” value [1, 11] was 98.2 ± 1.09.

With Cn1c(=O)c2[nH]cnc2n(C)c1=O [Theophylline] the “Residual Percentage (potency of drug following HME)” value [3, 6] was 100.61%, the “Residual Percentage (potency of drug following HME)” value [3, 7] was 100% and the “Residual Percentage (potency of drug following HME and FDM 3D printing)” value [3, 8] was 100.53%. For the same compound, the “Residual Percentage (potency of drug following HME and FDM 3D printing)” value [3, 9] was 100.2%.
